Where no end group is shown, it is not given here.
Experiments:
db/db mice = experiment: Blood glucose after intravenous dosing in db/db mice; assay type: in vivo; settings: 0.5-4 hours post-dosing
Experimental: Blood glucose was monitored 0.5, 1, 2, 3, and 4 hours post-dosing.

RINm cells = experiment: Insulin secretion in RINm cells; assay type: cell-based; settings: peptides 0-5 nM, mimetibodies 5 or 50 nM, ELISA
Experimental: GLP-1 MMB causes insulin secretion in RINm cells. To test the effect of GLP-1 MMB in insulin secretion, RINm cells were treated with increasing concentrations of GLP-1 (7-36) peptide (0-5 nM), exendin-4 peptide (0-5 nM), or various GLP-1 mimetibodies (5 or 50 nM) and the amount of insulin secreted was measured via ELISA. All GLP-1 MMBs tested had activities in stimulating insulin secretion in RINm cells (FIG. 6).

GLP-1 receptor [1] = biological target: T1, GLP-1 receptor (Mus musculus, UniProt O35659); experiment: Food intake in GLP-1R−/− and wild type mice; assay type: in vivo; settings: wild type mice, single iv, GLP-1 MMB 1 mg/kg, exendin-4 0.07 mg/kg
T1 construct: Male GLP-1R−/− and age matched wild type mice; from tissue; host or cells: whole animal (wild type mice; GLP-1R-/- mice as receptor-free control)
T1 sequence (O35659 22-463): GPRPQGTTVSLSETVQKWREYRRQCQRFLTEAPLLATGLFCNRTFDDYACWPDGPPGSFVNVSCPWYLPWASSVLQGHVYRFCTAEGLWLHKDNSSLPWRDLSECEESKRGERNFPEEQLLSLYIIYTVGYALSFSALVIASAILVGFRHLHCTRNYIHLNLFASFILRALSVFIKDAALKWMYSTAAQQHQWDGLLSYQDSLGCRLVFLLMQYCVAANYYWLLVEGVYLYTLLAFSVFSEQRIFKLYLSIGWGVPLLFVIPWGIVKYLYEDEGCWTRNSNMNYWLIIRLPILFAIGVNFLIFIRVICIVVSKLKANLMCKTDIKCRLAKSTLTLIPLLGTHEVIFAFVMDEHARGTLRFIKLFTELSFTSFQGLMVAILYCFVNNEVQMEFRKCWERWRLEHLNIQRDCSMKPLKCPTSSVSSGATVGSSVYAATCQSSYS
From the text: (§1) Materials/Methods: Animals: Male GLP-1R−/− and age matched wild type mice were randomized into three treatment groups (n=5) based on body weight and fasting blood glucose.

GLP-1 receptor [2] = experiment: Food intake in GLP-1R−/− and wild type mice; assay type: in vivo; settings: GLP-1R−/− mice, single iv, GLP-1 MMB 1 mg/kg, exendin-4 0.07 mg/kg
From the text: as §1

GLP-1 receptor [3] = biological target: T1, GLP-1 receptor; experiment: Glucose tolerance test (ipGTT) in GLP-1R−/− and wild type mice; assay type: in vivo; settings: wild type mice, single iv, GLP-1 MMB 1 mg/kg, exendin-4 0.07 mg/kg
Experimental: as §1
Glucose tolerance test (ipGTT): Mice were fasted overnight and dosed intravenously as discussed above. Fasting glucose was measured via tail snips using a hand-held glucometer (LifeScan). At t=0 min, mice were dosed i.p. with D-glucose (1.0 mg/g, Sigma) and blood glucose was measured after 15, 30, 60, 90 and 120 min using tail vein blood

GLP-1 receptor [4] = biological target: T1, GLP-1 receptor; experiment: Gastric emptying in GLP-1R−/− and wild type mice; assay type: in vivo; settings: wild type mice, single iv, GLP-1 MMB 1 mg/kg, exendin-4 0.07 mg/kg
Experimental: as §1
(§2) Gastric Emptying: Mice were fasted overnight. The next morning mice were re-fed for 1 h, food intake was recorded and the mice were deprived of food for the rest of the study. Mice were dosed intravenously as discussed above. Two hours post-dosing mice were euthenized.
(§3) The stomach was exposed by laparotomy, ligated at both the pylorus and cardia and removed.
(§4) The stomach content wet weight was measured. Equation 1 was used to calculate the percent of food remaining in the stomach. (Stomach Content Wet Weight (g)/Food Intake (g))*100 Equation (1)

GLP-1 receptor [5] = experiment: Gastric emptying in GLP-1R−/− and wild type mice; assay type: in vivo; settings: GLP-1R−/− mice, single iv, GLP-1 MMB 1 mg/kg, exendin-4 0.07 mg/kg
Experimental: as §1, §2, §3, §4

normal dogs = experiment: Gastric emptying in normal dogs; assay type: in vivo, beagle dogs; settings: relative to vehicle
Experimental: A gastric cannula was surgically implanted into female beagle dogs (10-15 kg) under general anesthesia and allowed to recover for at least 2 weeks. Dogs were fasted for 24 hours after which water was freely available. The gastric cannula was opened and gastric juice and food remnants were removed with 40-50 ml of lukewarm water. Groups of six dogs were dosed subcutaneously with lidamidine, an alpha2 agonist (0.63 mg/kg), 60 minutes before the meal, a positive control for delay of gastric emptying. […] Five minutes before the meal, the gastric cannula was opened to determine the amount of fluid present in stomach for baseline value and fluid was promptly reintroduced. Then a test meal consisting of 250 ml of a glucose solution (5 g/1) was administered via the cannula and allowed to remain in the stomach for 30 minutes. Gastric contents were drained from the stomach to measure total volume after 30 minutes. […] Glucose concentrations were evaluated for collected samples and used to determine the absolute amount of glucose remaining in the stomach at each time point. The percentage of glucose retained in the stomach was determined from the starting value and the concentration of glucose at each time point and plotted as a function of time. The time at which 50% of the gastric contents were retained was determined by fitting of the curves to a single exponential.

## CC[C@H](C)[C@H](NC(=O)[C@H](Cc1ccccc1)NC(=O)[C@H](CCC(=O)O)NC(=O)[C@H](CCCCN)NC(=O)[C@H](C)NC(=O)[C@H](C)NC(=O)[C@H](CCC(N)=O)NC(=O)CNC(=O)[C@H](CCC(=O)O)NC(=O)[C@H](CC(C)C)NC(=O)[C@H](Cc1ccc(O)cc1)NC(=O)[C@H](CO)NC(=O)[C@H](CO)NC(=O)[C@@H](NC(=O)[C@H](CC(=O)O)NC(=O)[C@H](CO)NC(=O)[C@@H](NC(=O)[C@H](Cc1ccccc1)NC(=O)[C@@H](NC(=O)CNC(=O)[C@H](CCC(=O)O)NC(=O)[C@H](C)NC(=O)[C@@H](N)Cc1c[nH]cn1)[C@@H](C)O)[C@@H](C)O)C(C)C)C(=O)N[C@@H](C)C(=O)N[C@@H](Cc1c[nH]c2ccccc12)C(=O)N[C@@H](CC(C)C)C(=O)N[C@H](C(=O)N[C@@H](CCCCN)C(=O)NCC(=O)N[C@@H](CCCNC(=N)N)C(N)=O)C(C)C [GLP-1 peptide]
db/db mice
  blood glucose: lowered blood glucose at 30 minutes

## exendin-4 [reference compound]
RINm cells
  insulin secretion in RINm cells: stimulates insulin release
GLP-1 receptor [1]
  24 hour cumulative food intake compared to CNTO1996: statistically significant reduction
GLP-1 receptor [2]
  food intake: no effect
GLP-1 receptor [3]
  AUC of ipGTT: statistically significant reduction
GLP-1 receptor [4]
  stomach content (percent of food remaining) 2 h after dosing compared to CNTO1996: statistically significant increase
GLP-1 receptor [5]
  gastric emptying: no effect

## GLP-1 (7-36) peptide: wide-type GLP-1 (7-36) peptide (HAEGTFTSDVSSYLEGQAAKEFIAWLVKGR; ends and bridges not checked; UniProt P01275 98-127, looked up)
RINm cells
  insulin secretion in RINm cells: stimulates insulin release

## CN=C(N)NC(=O)Nc1c(C)cccc1C [lidamidine]
Normal dogs
  gastric emptying: significant delay in gastric emptying

From patent US8071103B2, “Pharmaceutical composition comprising a human GLP-1 mimetibody” (Centocor, Inc., priority 2006, dated 2011)
